Results taken from patent publication US20080027072A1, “Potentiation of MC4 receptor activity” (AMPLA Pharmaceuticals, Inc., priority 2006, published 2008).

Columns and labels:
[1] = test system: diet-induced obese male C57BL/6J mice; experiment: 28-day body weight and food intake study in diet-induced obese mice; type: in vivo; conditions: day 29
Experimental: Sibutramine, which is currently used clinically, and rimonabant, which has recently received regulatory approval for the management of obesity were used as reference compounds.
C57BL/6J mice (7-8 weeks of age) were ordered from Charles River, Margate, Kent. Mice were group housed in polypropylene cages with free access to a high fat diet (D12451 45% of Kcal derived from fat; Research Diets, New Jersey, USA) and tap water at all times. Animals were maintained at 21±4° C. and 55±20% humidity on a normal phase 12 h light-dark cycle (lights on 04:30 h)
Animals were exposed to the high fat diet for 16 weeks. During this time body weight was recorded weekly. At the end of 14 weeks animals were singly housed in polypropylene cages for a further two week period (weeks 14-16) and placed on reverse phase lighting (lights off for 8 h from 9.30-17.30 h) during which time the room was illuminated by red light. Animals were dosed with vehicle orally throughout the baseline period. Body weight and food and water intake was recorded daily. Towards the end of the baseline period animals were allocated to groups. Upon completion of the baseline period, mice were dosed for 28 days with vehicle or test drug.
Body weight and food and water intake were recorded daily. Following drug administration the animals were examined and any overt behavior was recorded. For all dosing, the morning session was timed such that approximately half the mice were dosed at the time of lights out (09:30).
The test compounds were dissolved in 1% methylcellulose. Drug solutions were made up fresh each day 1-2 h before dosing and were administered using a dose volume in the range of 1-3 ml/kg. Drug doses were expressed as free base.
Resulting body weights, food intake and water intake were expressed as mean values±SEM, and the SEMs are calculated from residuals of the statistical model. Body weight data was analysed by ANCOVA with Day 1 as covariate followed by appropriate comparisons (two-tailed) to determine significant differences from the control group. […] Daily food and water intake data was analysed by ANOVA.

[2] = biological target: T1, human Melonocortin-4 (MC4) receptor (Homo sapiens, UniProt P32245); experiment: α-MSH dose-response, intracellular Ca2+ (Indo-1) flow cytometry (DSIS) in clonal MC4 cells, +/- compound; type: cell-based; conditions: compound at a concentration of 1-10 μM
T1 construct: expressed in transfected cells; host or cells: HEK293 (ATCC), G418-selected, FACS-sorted clonal cMC4 line
T1 sequence (P32245 whole entry): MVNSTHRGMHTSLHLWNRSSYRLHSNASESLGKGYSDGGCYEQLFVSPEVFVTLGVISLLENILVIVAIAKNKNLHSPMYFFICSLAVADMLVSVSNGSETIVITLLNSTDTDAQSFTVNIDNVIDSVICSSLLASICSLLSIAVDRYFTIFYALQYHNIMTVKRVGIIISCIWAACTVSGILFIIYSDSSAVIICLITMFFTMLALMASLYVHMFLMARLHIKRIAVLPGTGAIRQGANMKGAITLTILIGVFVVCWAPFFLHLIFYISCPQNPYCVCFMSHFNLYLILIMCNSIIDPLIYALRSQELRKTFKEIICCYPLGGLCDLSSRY
Experimental: The cMC4 and Control Cells were plated 24-48 hours in advance, and were harvested with trypsin at ˜80% confluency. Cells were then centrifuged and resuspended two times in Hybridoma Media, the final time at a concentration of 1×10^6 cells/mL. Both cell lines were then loaded with 2 mM of Indo-1 plus 3 μg/mL Biotin-X DHPE and then were incubated for 1 hour on a rotator at room temperature. Cells were washed two times and resuspended at a concentration of 1×10^6 cells/mL in Hybridoma Media. The cMC4 cell line then got 2 μg/ml of Alexa 488-streptavidin (Invitrogen/Molecular Probes). Cells were incubated for an additional 30 minutes on a rocker at room temperature. […]
The probe-loaded cMC4 and Control cell mixture was placed in the Cell Suspension System on the DSIS where they were continuously rocked to keep them in a suspended state. […] The DSIS software, NVS Sampler, recorded a timing file and the CyAn software, Summit, recorded a data file. These two files were then compiled and analyzed by NVS Analyzer (see below) to determine the percent of cells that responded to each concentration. The data were transferred to GraphPAD Prism (GraphPad Software, San Diego, Calif.) for a non-linear regression curve fit that determined the EC50. […]
When the screen was complete, the data files and the timing files were analyzed using NVS Analyzer. […]

[3] = biological target: T2, MC4 receptor (Homo sapiens, UniProt P32245); experiment: Single-well kinetics of the αMSH response (FIGS. 9A-9E); type: cell-based; parameters: expressed in transfected cells
T2 sequence (P32245 whole entry): as above
Experimental: FIGS. 9A-9E show response kinetics from single-well assays. The response was initiated by αMSH with or without Compound 1. […] Whereas at 1 μM and 300 nM, αMSH onset and peak were increased and sustained. The onset and peak response increased with 3 μM and 10 μM concentrations of Compound 1 at all concentrations of αMSH.

[4] = test system: diet-induced obese male wild-type C57BL/6J mice; experiment: Food intake and body weight, diet-induced obese wild-type mice; type: in vivo; conditions: 40 mg/kg oral, day 2, wild-type
Experimental: (§1) Mice were dosed at 40 mg/kg for two days with vehicle or test drug. Body weight and food and water intake were recorded daily.
(§2) The test compound was ground while being diluted in 1% methylcellulose, and the final solution was sonicated to give a uniform suspension suitable for dosing. Drug solutions were made up fresh each day 1-2 h before dosing and were administered using a dose volume in the range of 1-3 ml/kg.

[5] = biological target: T2, MC4 receptor; experiment: Competition ligand binding assay with [125I]-NDP-α-MSH, HEK293 cell membranes; parameters: expressed in transfected cells; host or cells: HEK293 stably expressing human MC4 receptor
Experimental: The binding was carried out at room temperature for another 2 h. […] Binding was terminated by addition of cold binding buffer and filtration on Whatman GF/B glass-fiber filters using a sampling manifold. The filters were washed 6 times with cold binding buffer and air-dried overnight. The radioactivity was quantified on a TopCounter after adding scintillation fluid. […] Data were analyzed by non-linear regression using program GraphPAD Prism (FIG. 5).

[6] = test system: diet-induced obese male MC4 knockout C57BL/6J mice; experiment: Food intake and body weight, diet-induced obese MC4 knockout mice; type: in vivo; conditions: 40 mg/kg oral
Experimental: as §1, §2

[7] = biological target: T2, MC4 receptor; experiment: Binding experiments with the MC4 receptor inverse agonist AgRP (FIG. 6); parameters: expressed in transfected cells
[8] = biological target: T2, MC4 receptor; experiment: ELISA-based cAMP assay in HEK293 cells stably expressing human MC4 receptors; type: cell-based; parameters: expressed in transfected cells; host or cells: HEK293 stably expressing human MC4 receptor
Experimental: ELISA-based cAMP assay was used to determine ligand-induced cAMP accumulation in HEK293 cells stably expressing human MC4 receptors in 96-well plate format. Compounds and cAMP standards were diluted in DMEM (without FBS and phenol red) containing 1 mM IBMX. Cells were plated in T-75 flasks and cultured for 24 h before use. Cells were removed from tissue culture flasks using enzyme-free cell dissociation buffer, washed and resuspended in DMEM (without FBS and phenol red) containing 1 mM IBMX at a density of 1×10^6 cells/ml. […] After incubation for 1 h, 50 μl of lysis buffer (0.5% NP-40 in TBS) was added, and incubated for 30 min. After adding rabbit anti-cAMP antibody (Sigma) diluted in TBST (TBS containing 0.05% Tween 20) (25 μl/well) and incubating for 30 min, 25 μl of cAMP-HRP conjugate dilution (in TBST) was added, and incubated for another 1 h. The plate was washed 6 times with TBST. To each well 200 μl of substrate (SuperSignal ELISA Pico Chemiluminesent substrate, Pierce, #37070) was added. The chemiluminescence activity was measured by a luminescence plate reader (NOVAstar, BMG Labtech). cAMP amount for each sample was estimated from cAMP standard curve.

With `CC(C)CC(N(C)C)C1(c2ccc(Cl)cc2)CCC1` (stereo not drawn) [Sibutramine] the “reduction of body weight” value ([1]; 20 mg/kg oral) was 2%.
`OC1(c2ccc(Cl)cc2)CCN(Cc2c[nH]c3ccccc23)CC1` [Compound 1] was tested, and the “shift in the EC50 of α-MSH” value [2] was “left shift”, the “onset and peak response to αMSH” value ([3]; 3 μM and 10 μM Compound 1, all concentrations of αMSH) was “increased” and the “activity induced by the compound itself” value ([3]; 10 μM Compound 1, 100 nM and 30 nM αMSH (FIG. 9E)) was “low level activity”. For the same molecule, the “maximum peak response to αMSH” value ([3]; low concentrations of Compound 1) was “did not appreciably increase”, the “body weight as compared to vehicle” value [4] was “statistically significant decrease” and the “reduction in food intake as compared to vehicle” value [4] was about 40%. For the same molecule, the EC50 [5] was 3.96 µM, the “body weight as compared to vehicle” value [6] was “did not show a similar decrease” and the “reduction in food intake as compared to vehicle” value [6] was “did not show a similar reduction”. For the same molecule, the “dissociation of AgRP from the MC4 receptor” value [7] was “increases the dissociation”, the “effect on AgRP activity” value ([8]; FIG. 8, cAMP) was “attenuates” and the “effect on α-MSH activity” value ([8]; FIG. 8, cAMP) was “potentiates”.
For `Cc1c(C(=O)NN2CCCCC2)nn(-c2ccc(Cl)cc2Cl)c1-c1ccc(Cl)cc1` [Rimonabant], the “reduction of body weight” value ([1]; 10 mg/kg oral) was 15% and the “weight reduction as compared to vehicle, significance” value ([1]; 10 mg/kg oral) was “statistically significant weight reduction”.
`Clc1ccc(N2CCN(Cc3c[nH]c4ncccc34)CC2)cc1` [Compound 2] was tested, and the “shift in the EC50 of α-MSH” value [2] was “left shift”, the EC50 [5] was 252 µM and the “effect on the response of NDP-α-MSH” value ([8]; cAMP accumulation) was “potentiate”.
